According to patent publication EP4725941A1, “ARYLAMIDE DERIVATIVE HAVING ANTITUMOR ACTIVITY” (priority 2020, dated 2021):
Where two headings read alike, the source gives them in different places.

What was measured:
BRAF = target: T1, BRAF (Homo sapiens, UniProt P15056); test: BRAF-inhibiting activity, time-resolved fluorescence-fluorescence resonance energy transfer assay; type: biochemical
T1 construct: purchased Eurofins Genomics KK; (BRAF); Thermo Fisher Scientific Inc. (MEK1)
Method: The BRAF-inhibiting activity of the compounds listed in Table 3 below was evaluated by the time-resolved fluorescence-fluorescence resonance energy transfer assay as described below.

HCT-116 = HCT-116 growth-inhibiting activity; type: cell-based; settings: Table 1, human cancer cells with RAS mutation
Colo-205 = Colo-205 growth-inhibiting activity; type: cell-based; settings: Table 1, human cancer cells with BRAF mutation
MEK1 [1] = target: T2, MEK1 (Homo sapiens, UniProt Q02750); test: MEK1-inhibiting activity, fluorescent polarization method (CRAF/MEK1/ERK2 cascade, IMAP); type: biochemical
T2 construct: purchased Thermo Fisher Scientific Inc. (MEK1, CRAF); Carna Biosciences, Inc. (ERK2)

A549 = test: Cell proliferation-inhibiting activity (ATP in viable cells, CellTiter-Glo), A549; type: cell-based, human; settings: A549, 96 h; human lung cancer cells, 4 days; read-out: A549 IC50
NCI-H2122 = test: Cell proliferation-inhibiting activity (ATP in viable cells, CellTiter-Glo), NCI-H2122; type: cell-based, human; settings: NCI-H2122, 96 h; human lung cancer cells, 4 days; read-out: NCI-H2122 IC50
[2] = Human liver microsome stability; type: in vitro ADME; settings: human liver microsomes, pH 7.4
MEK1 [3] = target: T2, MEK1; test: MEK1-inhibiting activity, fluorescent polarization method (CRAF/MEK1/ERK2 cascade, IMAP); type: biochemical; settings: Table 3; read-out: MEK1 IC50
Method: The MEK1-inhibiting activity of the compounds listed in Table 3 below were evaluated by the fluorescent polarization method as described below.

Calu-6 = test: Cell proliferation-inhibiting activity (ATP in viable cells, CellTiter-Glo), Calu-6; type: cell-based, human; settings: Calu-6, 96 h; human lung cancer cells, 4 days; read-out: Calu-6 IC50

T2 sequence (Q02750 whole entry): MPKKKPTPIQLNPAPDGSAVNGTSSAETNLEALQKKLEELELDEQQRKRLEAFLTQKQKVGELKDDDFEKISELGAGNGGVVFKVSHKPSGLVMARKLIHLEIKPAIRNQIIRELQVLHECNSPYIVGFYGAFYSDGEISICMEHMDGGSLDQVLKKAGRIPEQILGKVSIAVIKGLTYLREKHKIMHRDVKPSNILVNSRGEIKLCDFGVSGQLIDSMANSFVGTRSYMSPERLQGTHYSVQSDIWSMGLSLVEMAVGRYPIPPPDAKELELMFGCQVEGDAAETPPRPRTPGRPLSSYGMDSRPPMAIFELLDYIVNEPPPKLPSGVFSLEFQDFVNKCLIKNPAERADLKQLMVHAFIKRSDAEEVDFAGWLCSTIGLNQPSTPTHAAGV
T1 sequence (P15056 417-766 limits assumed): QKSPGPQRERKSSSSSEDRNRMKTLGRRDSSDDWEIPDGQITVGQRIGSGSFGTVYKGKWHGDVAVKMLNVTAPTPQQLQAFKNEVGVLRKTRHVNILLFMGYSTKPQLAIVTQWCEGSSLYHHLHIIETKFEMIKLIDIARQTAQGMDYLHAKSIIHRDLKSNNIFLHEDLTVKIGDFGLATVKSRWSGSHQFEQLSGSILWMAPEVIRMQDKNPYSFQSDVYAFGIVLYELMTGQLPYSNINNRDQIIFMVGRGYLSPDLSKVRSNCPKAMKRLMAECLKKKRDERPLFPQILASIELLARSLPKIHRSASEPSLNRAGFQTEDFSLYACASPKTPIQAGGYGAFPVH

| SMILES | IC50 (BRAF; Table 1; read-out: BRAF IC50) [nM] | IC50 (HCT-116) [nM] | IC50 (Colo-205) [nM] | IC50 (MEK1 [1]; Table 1) [nM] | IC50 (BRAF; Table 3; read-out: BRAF IC50) [nM] | IC50 (A549) [nM] | IC50 (NCI-H2122) [nM] | microsomal CLint at 0.99 µM [2] [µL/min/mg] | IC50 (MEK1 [1]; Table 3) [nM] | IC50 (MEK1 [3]) [nM] | IC50 (BRAF; read-out: BRAF IC50; Table 3) [nM] | IC50 (Calu-6) [nM] |
| --- | --- | --- | --- | --- | --- | --- | --- | --- | --- | --- | --- | --- |
| CNS(=O)(=O)NCC(=O)N(Cc1cc(C(=O)NOCCO)c(Nc2ccc(I)cc2F)c(F)c1F)OC [AA-1, 3,4-Difluoro-2-(2-fluoro-4-iodoanilino)-N-(2-hydroxyethoxy)-5-[[methoxy-[2-(methylsulfamoylamino)acetyl]amino]methyl]benzamide] | 3 | 2 | 0.4 | 21 |  |  |  |  |  |  |  |  |
| CNS(=O)(=O)Nc1cccc(Cc2c(CC(=O)NOCCO)c3ccc(Oc4ncccn4)cc3oc2=O)c1F [AA-2, 2-[3-[[2-Fluoro-3-(methylsulfamoylamino)phenyl]methyl]-2-oxo-7-pyrimidin-2-yloxychromen-4-yl]-N-(2-hydroxyethoxy)acetamide] | 2200 | 45000 |  | > 8000 |  |  |  |  |  |  |  |  |
| CNS(C)(=O)=Nc1nccc(Cc2cc(C(N)=O)c(Nc3ccc(I)cc3F)c(F)c2F)c1F (stereo not drawn) [Compound A-43, 3,4-Difluoro-2-(2-fluoro-4-iodoanilino)-5-[[3-fluoro-2-[[methyl-(methylamino)-oxo-λ6-sulfanylidene]amino]pyridin-4-yl]methyl]benzamide] |  |  |  |  | 10 | 2 | 13 | 37 | 41 |  |  |  |
| CNS(=O)(=O)Nc1nccc(Cc2cc(C(N)=O)c(Nc3ccc4sccc4c3F)c(F)c2F)c1F [Compound H-3, 3,4-difluoro-2-[(4-fluoro-1-benzothiophen-5-yl)amino]-5-[[3-fluoro-2-(methylsulfamoylamino)pyridin-4-yl]methyl]benzamide] |  |  |  |  | 4 |  |  | 149 | 2 |  |  |  |
| Cn1c(Nc2ccc(I)cc2F)c(C(N)=O)cc(Cc2cccc(NS(=O)(=O)C3(C)CC3)c2F)c1=O [Compound K-6, 2-(2-Fluoro-4-iodoanilino)-5-[[2-fluoro-3-[(1-methylcyclopropyl)sulfonylamino]phenyl]methyl]-1-methyl-6-oxopyridine-3-carboxamide] |  |  |  |  |  | 25 | 21 | 499 |  | 227 | 15 | 83 |
| CONC(=O)c1cc(Cc2cccc(NS(=O)(=O)C3(C)CC3)c2F)c(=O)n(C)c1Nc1ccc(I)cc1F [Compound K-7, 2-(2-Fluoro-4-iodoanilino)-5-[[2-fluoro-3-[(1-methylcyclopropyl)sulfonylamino]phenyl]methyl]-N-methoxy-1-methyl-6-oxopyridine-3-carboxamide] |  |  |  |  |  | 9 | 7 | 357 |  | 31 | 14 | 27 |
| CCS(=O)(=O)Nc1cccc(Cc2cc(C(N)=O)c(Nc3ccc(I)cc3F)n(C)c2=O)c1F [Compound K-10, 5-[[3-(Ethylsulfonylamino)-2-fluorophenyl]methyl]-2-(2-fluoro-4-iodoanilino)-1-methyl-6-oxopyridine-3-carboxamide] |  |  |  |  |  | 25 | 16 | 69 |  | 128 | 8 | 81 |
| Cn1c(Nc2ccc(I)cc2F)c(C(=O)NC2CC2)cc(Cc2cccc(NS(=O)(=O)C3(C)CC3)c2F)c1=O [Compound K-11, N-Cyclopropyl-2-(2-fluoro-4-iodoanilino)-5-[[2-fluoro-3-[(1-methylcyclopropyl)sulfonylamino]phenyl]methyl]-I-methyl-6-oxopyridine-3-carb oxamide] |  |  |  |  |  | 93 | 85 | 437 |  | 278 | 15 | 230 |
| Cn1c(Nc2ccc(I)cc2F)c(C(=O)NOC(C)(C)C)cc(Cc2cccc(NS(=O)(=O)C3(C)CC3)c2F)c1=O [Compound K-12, 2-(2-Fluoro-4-iodoanilino)-5-[2-fluoro-3-[(1-methylcyclopropyl)sulfonylamino]phenyl]methyl]-1-methyl-N-[(2-methylpropan-2-yl)oxyl-6-oxo pyridine-3-carboxamide] |  |  |  |  |  | 7 | 6 | 546 |  | 10 | 14 | 27 |
| CCNS(=O)(=O)Nc1cccc(Cc2cc(C(=O)NC3CC3)c(Nc3ccc(I)cc3F)n(C)c2=O)c1F [Compound K-13, N-Cyclopropyl-5-[[3-(ethylsulfamoylamino)-2-fluorophenyl]methyl]-2-(2-fluoro-4-iodoanilino)-1-methyl-6-oxopyridine-3-carboxamide] |  |  |  |  |  | 18 | 13 | 321 |  | 115 | 9 | 53 |
| CNS(=O)(=O)Nc1nccc(Cc2cc(C(N)=O)c(Nc3ccc(I)cc3F)cn2)c1F [Compound L-1, 5-(2-Fluoro-4-iodoanilino)-2-[[3-fluoro-2-(methylsulfamoylamino)pyridin-4-yl]methyl]pyridine-4-carboxamide] |  |  |  |  | 2 | 21 | 17 | 10 | 6 |  |  | 41 |
| CNS(=O)(=O)Nc1nccc(Cc2cc(C(N)=O)c(Nc3ccc(I)cc3F)n3cncc23)c1F [Compound M-1, 5-(2-Fluoro-4-iodoanilino)-8-[[3-fluoro-2-(methylsulfamoylamino)pyridin-4-yl]methyl]imidazo[1,5-a]pyridine-6-carboxamide] |  |  |  |  |  | 27 | 13 | 59 |  | 5 | 4 | 28 |
| CNS(=O)(=O)Nc1cccc(Oc2cc(F)cc(Nc3ccc(I)cc3F)c2C(N)=O)c1 [Ref-2, 4-Fluoro-2-(2-fluoro-4-iodoanilino)-6-[3-(methylsulfamoylamino)phenoxy]benzamide, reference compound] |  |  |  |  |  | 8 | 3 | 12 |  | 364 | 12 | 35 |
| CC(C)S(=O)(=O)Nc1cccc(Oc2cncc(Nc3ccc(I)cc3F)c2C(N)=O)c1 [Ref-3, 3-(2-Fluoro-4-iodoanilino)-5-[3-(propan-2-ylsulfonylamino)phenoxy]py ridine-4-carboxamide, reference compound] |  |  |  |  |  | 2 | 1 | 11 |  | 5 | 12 | 10 |
